In brackets after ≈: the same amount, converted by molar mass. Read-outs that look alike come from different tables or passages of the source.
Tests used:
[1] = system: B. subtilis PSB3; test: MIC, broth microdilution, B. subtilis PSB3; assay type: cell-based, Bacillus subtilis; settings: for MICvanc/MICi: ratio of MIC of vancomycin and MIC of analogue
Protocol: (§1) The minimum inhibitory concentration (MIC) was determined using the broth microdilution method according to the antimicrobial susceptibility testing standards of the clinical and laboratory standards institute ([Clinical and Laboratory Standards Institute [CLSI], 2012]). Ultrapure water and non-inoculated broth were used as controls. In one case, a final concentration of 10 μM vancomycin was included with the vancomycin analog or control antibiotic.

[2] = system: E. coli XL-1 blue MRF'; test: MIC, broth microdilution, E. coli XL-1 blue MRF'; assay type: cell-based, Escherichia coli; settings: E. coli XL-1 blue MRF'; for MICvanc/MICi: ratio of MIC of vancomycin and MIC of analogue
Protocol: as §1

[3] = system: E. faecalis VSE 1; test: MIC, broth microdilution, vancomycin-sensitive E. faecalis (VSE 1); assay type: cell-based, Enterococcus faecalis; settings: for MIC: read-out: MIC
Procedure, shortened: (§2)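 Susceptibility was scored by broth microdilution (CLSI). In one instance each vancomycin analog or control antibiotic was tested in the presence of vancomycin, 10 μM final, and ultrapure water plus non-inoculated broth were included as controls.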

[4] = system: E. faecalis VRE 6; test: MIC, broth microdilution, vancomycin-resistant E. faecalis VRE 6 (VanA); assay type: cell-based, Enterococcus faecalis; settings: for MIC: read-out: MIC
Procedure, shortened: as §2

[5] = system: E. faecalis VRE 53; test: MIC, broth microdilution, vancomycin-resistant E. faecalis VRE 53 (VanA); assay type: cell-based, Enterococcus faecalis; settings: for MIC: read-out: MIC
Procedure, shortened: as §2

[6] = system: E. faecalis VRE 29; test: MIC, broth microdilution, vancomycin-resistant E. faecalis VRE 29 (VanA); assay type: cell-based, Enterococcus faecalis
Procedure, shortened: as §2

[7] = system: E. faecalis VRE 37; test: MIC, broth microdilution, vancomycin-resistant E. faecalis VRE 37 (VanA); assay type: cell-based, Enterococcus faecalis
Procedure, shortened: as §2

[8] = system: Murine leukemia (L1210) cells; test: Cytostatic activity, L1210 cell proliferation; assay type: cell-based; settings: mean ± SD of three experiments; highest concentration tested 250 µM; 2 days; read-out: Toxicity (IC50) L1210
Procedure, shortened: (§3)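 Suspensions (300,000–500,000 cells/mL) combined with equal volumes of diluted compound; 37°C; L1210 2 d / CEM 3 d / HeLa 4 d; counted by Coulter counter; IC50 vs untreated wells.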

[9] = system: human T-lymphocyte (CEM) cells; test: Cytostatic activity, CEM cell proliferation; assay type: cell-based; settings: mean ± SD of three experiments; highest concentration tested 250 µM; 3 days; read-out: Toxicity (IC50) CEM
Procedure, shortened: as §3

[10] = system: human cervix carcinoma (HeLa) cells; test: Cytostatic activity, HeLa cell proliferation; assay type: cell-based; settings: mean ± SD of three experiments; highest concentration tested 250 µM; 4 days; read-out: Toxicity (IC50) HeLa
Procedure, shortened: as §3

[11] = system: L1210, CEM and HeLa cell lines; test: Cytostatic activity, average or summary over L1210, CEM and HeLa; assay type: cell-based
Procedure, shortened: as §3

[12] = system: S. aureus VSSA (ATCC 6538); test: MIC, broth microdilution, vancomycin-sensitive S. aureus (VSSA/MSSA, ATCC 6538); assay type: cell-based, Staphylococcus aureus; settings: Staphylococcus aureus VSSA; read-out: MIC
Procedure, shortened: as §2

[13] = system: S. aureus VISA/HIP5827; test: MIC, broth microdilution, vancomycin-intermediate S. aureus VISA HIP5827; assay type: cell-based, Staphylococcus aureus
Procedure, shortened: as §2

[14] = system: S. aureus VRSA; test: MIC, broth microdilution, vancomycin-resistant S. aureus (VRSA); assay type: cell-based, Staphylococcus aureus
Procedure, shortened: as §2

[15] = system: MRSA KS2; test: MIC, broth microdilution, MRSA KS2; assay type: cell-based, Staphylococcus aureus; settings: Staphylococcus aureus MRSA KS2; read-out: MIC
Procedure, shortened: as §2

[16] = system: MRSA KS6; test: MIC, broth microdilution, MRSA KS6; assay type: cell-based, Staphylococcus aureus
Procedure, shortened: as §2

[17] = system: MRSA KS89; test: MIC, broth microdilution, MRSA KS89; assay type: cell-based, Staphylococcus aureus
Procedure, shortened: as §2

[18] = system: MRSA KS1; test: MIC, broth microdilution, MRSA KS1; assay type: cell-based, Staphylococcus aureus; settings: Staphylococcus aureus MRSA KS1; read-out: MIC
Procedure, shortened: as §2

[19] = E. faecalis VSE 1, ratio of MIC of vancomycin and MIC of analogue
[20] = E. faecalis VRE 6, ratio of MIC of vancomycin and MIC of analogue
[21] = E. faecalis VRE 53, ratio of MIC of vancomycin and MIC of analogue

C#CCCC(=O)NCCCNC(=O)C1NC(=O)C2NC(=O)C(NC(=O)C3NC(=O)C(CC(N)=O)NC(=O)C(NC(=O)C(CC(C)C)NC)C(O)c4ccc(c(Cl)c4)Oc4cc3cc(c4OC3OC(CO)C(O)C(O)C3OC3CC(C)(N)C(O)C(C)O3)Oc3ccc(cc3Cl)C2O)c2ccc(O)c(c2)-c2c(O)cc(O)cc21 (stereo not shown) [Vanc-B]
MIC [1]: 0.20 µM (≈ 0.317 µg/mL)
MICvanc/MICi [1]: 2
MIC [2]: 25 µM (≈ 39.6 µg/mL)
MICvanc/MICi [2]: 4
MICvanc/MICi [3, 19]: 2
MIC ([3]; E. faecalis VSE 1): 0.78 µM (≈ 1.24 µg/mL)
MIC ([3]; Enterococcus faecalis VSE 1 (vancomycin-sensitive)): 0.78 µM (≈ 1.24 µg/mL)
MIC-fold improvement vs. vancomycin ([3]; VSE 1, ratio of MIC of vancomycin and MIC of analogue): 2
MICvanc/MICi [4, 20]: 4
MIC ([4]; E. faecalis VRE 6): 50 µM (≈ 79.3 µg/mL)
MIC ([4]; Enterococcus faecalis VRE 6 (vancomycin-resistant)): 50 µM (≈ 79.3 µg/mL)
MIC-fold improvement vs. vancomycin ([4]; VRE 6, ratio of MIC of vancomycin and MIC of analogue): 4
MICvanc/MICi [5, 21]: 32
MIC ([5]; E. faecalis VRE 53): 12.5 µM (≈ 19.8 µg/mL)
MIC ([5]; Enterococcus faecalis VRE 53 (vancomycin-resistant)): 12.5 µM (≈ 19.8 µg/mL)
MIC-fold improvement vs. vancomycin ([5]; VRE 53, ratio of MIC of vancomycin and MIC of analogue): 32
MIC ([6]; Enterococcus faecalis VRE 29 (vancomycin-resistant), read-out: MIC): 100 µM (≈ 159 µg/mL)
MIC-fold improvement vs. vancomycin ([6]; VRE 29, ratio of MIC of vancomycin and MIC of analogue): 4
MIC ([7]; Enterococcus faecalis VRE 37 (vancomycin-resistant), read-out: MIC): 100 µM (≈ 159 µg/mL)
MIC-fold improvement vs. vancomycin ([7]; VRE 37, ratio of MIC of vancomycin and MIC of analogue): 8
IC50 [8]: > 250 µM
IC50 [9]: > 250 µM
IC50 [10]: > 250 µM
IC50 ([11]; average of L1210, CEM and HeLa, read-out: Toxicity (IC50) Average): > 250 µM
IC50 ([11]; summary over the three cell lines, read-out: IC50 (L1210, CEM, HeLa), depending on the cell line used): > 250 µM
MIC [12]: 0.78 µM (≈ 1.24 µg/mL)
MIC ([13]; Staphylococcus aureus VISA/HIP5827, read-out: MIC): 3.13 µM (≈ 4.96 µg/mL)
MIC-fold improvement vs. vancomycin ([13]; VISA/HIP5827, ratio of MIC of vancomycin and MIC of analogue): 2
MIC ([14]; Staphylococcus aureus VRSA, read-out: MIC): 12.5 µM (≈ 19.8 µg/mL)
MIC-fold improvement vs. vancomycin ([14]; VRSA, ratio of MIC of vancomycin and MIC of analogue): 8
MIC [15]: 0.78 µM (≈ 1.24 µg/mL)
MIC-fold improvement vs. vancomycin ([16]; MRSA KS6, ratio of MIC of vancomycin and MIC of analogue): 0.5
MIC ([16]; Staphylococcus aureus MRSA KS6, read-out: MIC): 1.56 µM (≈ 2.47 µg/mL)
MIC-fold improvement vs. vancomycin ([17]; MRSA KS8, ratio of MIC of vancomycin and MIC of analogue): 1
MIC ([17]; Staphylococcus aureus MRSA KS8, read-out: MIC): 1.56 µM (≈ 2.47 µg/mL)
MIC [18]: 0.78 µM (≈ 1.24 µg/mL)

C#CCNC(=O)[C@H]1NC(=O)[C@H]2NC(=O)[C@H](NC(=O)[C@@H]3NC(=O)[C@H](CC(N)=O)NC(=O)[C@H](NC(=O)[C@@H](CC(C)C)NC)[C@H](O)c4ccc(c(Cl)c4)Oc4cc3cc(c4O[C@@H]3O[C@H](CO)[C@@H](O)[C@H](O)[C@H]3O[C@H]3C[C@](C)(N)[C@H](O)[C@H](C)O3)Oc3ccc(cc3Cl)[C@H]2O)c2ccc(O)c(c2)-c2c(O)cc(O)cc21 [Vanc-G]
MIC [1]: 0.78 µM (≈ 1.16 µg/mL)
MICvanc/MICi [1]: 0.5
MIC [2]: 12.5 µM (≈ 18.6 µg/mL)
MICvanc/MICi [2]: 8
MICvanc/MICi [3, 19]: 4
MIC ([3]; E. faecalis VSE 1): 0.39 µM (≈ 0.58 µg/mL)
MICvanc/MICi [4, 20]: 2
MIC ([4]; E. faecalis VRE 6): 100 µM (≈ 149 µg/mL)
MICvanc/MICi [5, 21]: 8
MIC ([5]; E. faecalis VRE 53): 50 µM (≈ 74.3 µg/mL)

— PMC6001238, “Iterative Chemical Engineering of Vancomycin Leads to Novel Vancomycin Analogs With a High in Vitro Therapeutic Index” (Frontiers in Microbiology, 2018)
